# Measured values reported in ChEMBL document CHEMBL4665701, “Discovery and Characterization of Clinical Candidate LXE408 as a Kinetoplastid-Selective Proteasome Inhibitor for the Treatment of Leishmaniases” (J Med Chem, 2020).
# Calls of active or inactive are those of the source. No cut-off for these calls is given here.
# Columns and labels:
# in vitro [1] = settings: rat, liver microsomes
# Description: Metabolic stability in rat liver microsomes assessed as hepatic extraction ratio after 1 hr by LC-MS/MS analysis
# Leishmania donovani [2] = assay: Antiparasitic activity against Leishmania donovani MHOM/ET/67/HU3 (ATCC) infected in BALB/c mouse model of visceral leishmaniasis assessed as reduction in parasite burden in liver at 12 mg/kg, po QD for 8 days by qPCR analysis relative to control; type: functional, organism-based; settings: time 8.0 day
# Leishmania donovani [3] = assay: Antiparasitic activity against Leishmania donovani MHOM/ET/67/HU3 (ATCC) infected in BALB/c mouse model of visceral leishmaniasis assessed as parasite burden in liver at 12 mg/kg, po QD for 8 days by qPCR analysis (reference value: 100%); type: functional; settings: time 8 day
# [4] = Drug level in mouse hepatocytes assessed as compound abundance level at 10 uM incubated for 4 hrs by UV chromatography; type: ADME, cell-based, Hepatocyte
# [5] = Drug level in rat hepatocytes assessed as compound abundance level at 10 uM incubated for 4 hrs by UV chromatography; type: ADME, cell-based, Hepatocyte
# [6] = Drug level in dog hepatocytes assessed as compound abundance level at 10 uM incubated for 4 hrs by UV chromatography; type: ADME, cell-based, Canis lupus familiaris, Hepatocyte
# [7] = Drug level in monkey hepatocytes assessed as compound abundance level at 10 uM incubated for 4 hrs by UV chromatography; type: ADME, cell-based, Macaca mulatta, Hepatocyte; settings: rhesus monkey
# [8] = Drug level in human hepatocytes assessed as compound abundance level at 10 uM incubated for 4 hrs by UV chromatography; type: ADME, cell-based, Hepatocyte
# [9] = Drug uptake in beagle dog at 10 mg/kg, po measured up to 24 hrs relative to LXE408; type: ADME, organism-based, Canis lupus familiaris; settings: in vivo
# Leishmania donovani [10] = assay: Antiparasitic activity against Leishmania donovani MHOM/ET/67/HU3 (ATCC) infected in primary BALB/c mouse peritoneal macrophages assessed as reduction in parasite proliferation incubated for 120 hrs by SYBR Green I staining based assay; type: functional, organism-based; settings: Macrophage
# Leishmania tarentolae [11] = assay: Noncompetitive inhibition of chymotrypsin-like activity of Leishmania tarentolae proteasome beta 5 using fluorogenic peptide Suc-LLVY-[Rh110]-[Dpro] as substrate
# in vitro [12] = settings: mouse, liver microsomes
# Description: Metabolic stability in mouse liver microsomes assessed as hepatic extraction ratio after 1 hr by LC-MS/MS analysis
# in vitro [13] = settings: rat, liver microsomes; remark: listed apart in the source
# in vitro [14] = settings: rat, liver microsomes; remark: listed apart in the source
# Cytochrome P450 2J2 = target: T1, Cytochrome P450 2J2 (Homo sapiens, UniProt P51589); assay: Drug metabolism assessed as human CYP2j2-mediated N-(4-fluoro-3-(6-(3-methylpyri din-2-yl)-[1,2,4]triazolo[1,5- a]pyrimidin-2-yl)phenyl)-2-(hy droxymethyl)-4-methyloxazole-5 -carboxamide formation; type: ADME; settings: recombinant enzyme
# T1 sequence (P51589 whole entry): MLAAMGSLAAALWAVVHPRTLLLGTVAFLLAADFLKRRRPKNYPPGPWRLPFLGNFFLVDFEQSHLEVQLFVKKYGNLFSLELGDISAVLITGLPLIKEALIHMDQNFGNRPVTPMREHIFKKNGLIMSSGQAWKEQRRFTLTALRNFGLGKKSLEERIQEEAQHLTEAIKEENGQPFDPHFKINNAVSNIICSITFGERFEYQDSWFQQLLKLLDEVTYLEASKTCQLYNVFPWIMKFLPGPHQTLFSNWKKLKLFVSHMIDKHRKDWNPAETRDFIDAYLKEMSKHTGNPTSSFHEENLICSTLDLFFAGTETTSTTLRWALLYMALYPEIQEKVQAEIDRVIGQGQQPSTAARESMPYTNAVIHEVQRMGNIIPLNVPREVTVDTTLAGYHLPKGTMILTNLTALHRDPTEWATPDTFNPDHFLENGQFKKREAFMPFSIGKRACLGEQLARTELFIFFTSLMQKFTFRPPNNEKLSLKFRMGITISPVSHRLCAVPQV
# Cytochrome P450 1A2 = target: T2, Cytochrome P450 1A2 (Homo sapiens, UniProt P05177); assay: Drug metabolism assessed as human CYP1A2-mediated N-(4-fluoro-3-(6-(3-methylpyri din-2-yl)-[1,2,4]triazolo[1,5- a]pyrimidin-2-yl)phenyl)-2-(hy droxymethyl)-4-methyloxazole-5 -carboxamide formation; type: ADME; settings: recombinant enzyme
# T2 sequence (P05177 whole entry): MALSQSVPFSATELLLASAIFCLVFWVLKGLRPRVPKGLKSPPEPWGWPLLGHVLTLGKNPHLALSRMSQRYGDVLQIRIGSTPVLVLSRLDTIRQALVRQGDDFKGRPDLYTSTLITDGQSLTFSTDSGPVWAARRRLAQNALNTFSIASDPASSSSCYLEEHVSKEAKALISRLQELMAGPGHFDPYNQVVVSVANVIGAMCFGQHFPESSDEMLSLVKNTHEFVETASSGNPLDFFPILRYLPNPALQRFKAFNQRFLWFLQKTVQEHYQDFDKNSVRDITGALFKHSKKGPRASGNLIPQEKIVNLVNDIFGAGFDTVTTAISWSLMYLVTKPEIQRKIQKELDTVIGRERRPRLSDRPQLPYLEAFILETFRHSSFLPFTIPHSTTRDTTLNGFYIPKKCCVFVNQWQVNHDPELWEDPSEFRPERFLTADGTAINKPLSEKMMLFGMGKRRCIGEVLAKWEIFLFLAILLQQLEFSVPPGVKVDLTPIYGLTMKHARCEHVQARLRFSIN
# Cytochrome P450 1A1 = target: T3, Cytochrome P450 1A1 (Homo sapiens, UniProt P04798); assay: Drug metabolism assessed as human CYP1A1-mediated N-(4-fluoro-3-(6-(3-methylpyri din-2-yl)-[1,2,4]triazolo[1,5- a]pyrimidin-2-yl)phenyl)-2-(hy droxymethyl)-4-methyloxazole-5 -carboxamide formation; type: ADME; settings: recombinant enzyme
# T3 sequence (P04798 whole entry): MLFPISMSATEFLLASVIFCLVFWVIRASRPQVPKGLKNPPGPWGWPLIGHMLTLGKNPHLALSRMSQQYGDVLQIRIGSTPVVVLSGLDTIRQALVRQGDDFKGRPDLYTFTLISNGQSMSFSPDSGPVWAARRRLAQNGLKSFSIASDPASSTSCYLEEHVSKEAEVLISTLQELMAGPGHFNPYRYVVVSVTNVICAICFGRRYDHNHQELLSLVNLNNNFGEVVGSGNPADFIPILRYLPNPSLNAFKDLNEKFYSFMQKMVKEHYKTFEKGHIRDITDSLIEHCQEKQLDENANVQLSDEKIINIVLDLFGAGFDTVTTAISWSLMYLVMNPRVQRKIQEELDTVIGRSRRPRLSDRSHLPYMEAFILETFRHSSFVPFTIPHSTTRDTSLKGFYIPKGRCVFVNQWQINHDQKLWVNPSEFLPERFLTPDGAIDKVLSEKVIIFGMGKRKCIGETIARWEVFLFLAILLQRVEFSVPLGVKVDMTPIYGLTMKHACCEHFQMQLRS
# Cytochrome P450 2D15 = target: T4, Cytochrome P450 2D15 (Canis lupus familiaris, UniProt Q29473); assay: Drug metabolism assessed as dog CYP2D15-mediated N-(4-fluoro-3-(6-(3-methylpyri din-2-yl)-[1,2,4]triazolo[1,5- a]pyrimidin-2-yl)phenyl)-2-(hy droxymethyl)-4-methyloxazole-5 -carboxamide formation; type: ADME; settings: recombinant enzyme
# T4 sequence (Q29473 whole entry): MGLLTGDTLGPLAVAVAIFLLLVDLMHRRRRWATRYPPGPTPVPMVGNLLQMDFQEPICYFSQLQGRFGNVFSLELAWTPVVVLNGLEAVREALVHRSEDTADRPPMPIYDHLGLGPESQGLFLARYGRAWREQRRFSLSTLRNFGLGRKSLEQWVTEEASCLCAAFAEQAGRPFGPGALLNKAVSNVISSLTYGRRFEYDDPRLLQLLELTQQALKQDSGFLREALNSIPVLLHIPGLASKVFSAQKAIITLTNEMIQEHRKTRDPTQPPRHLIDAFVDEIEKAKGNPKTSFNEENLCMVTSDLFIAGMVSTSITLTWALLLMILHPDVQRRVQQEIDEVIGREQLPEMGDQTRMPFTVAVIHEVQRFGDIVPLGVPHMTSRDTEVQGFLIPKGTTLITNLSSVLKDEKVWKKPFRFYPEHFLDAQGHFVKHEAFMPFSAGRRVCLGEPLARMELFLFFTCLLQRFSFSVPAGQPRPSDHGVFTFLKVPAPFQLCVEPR
# Cytochrome P450 3A4 = Cytochrome P450 3A4 (Homo sapiens, UniProt P08684); assay: Drug metabolism assessed as human CYP3A4-mediated N-(4-fluoro-3-(6-(3-methylpyri din-2-yl)-[1,2,4]triazolo[1,5- a]pyrimidin-2-yl)phenyl)-2-(hy droxymethyl)-4-methyloxazole-5 -carboxamide formation; type: ADME; settings: recombinant enzyme
# Chain of Cytochrome P450 3A4 (P08684 whole entry): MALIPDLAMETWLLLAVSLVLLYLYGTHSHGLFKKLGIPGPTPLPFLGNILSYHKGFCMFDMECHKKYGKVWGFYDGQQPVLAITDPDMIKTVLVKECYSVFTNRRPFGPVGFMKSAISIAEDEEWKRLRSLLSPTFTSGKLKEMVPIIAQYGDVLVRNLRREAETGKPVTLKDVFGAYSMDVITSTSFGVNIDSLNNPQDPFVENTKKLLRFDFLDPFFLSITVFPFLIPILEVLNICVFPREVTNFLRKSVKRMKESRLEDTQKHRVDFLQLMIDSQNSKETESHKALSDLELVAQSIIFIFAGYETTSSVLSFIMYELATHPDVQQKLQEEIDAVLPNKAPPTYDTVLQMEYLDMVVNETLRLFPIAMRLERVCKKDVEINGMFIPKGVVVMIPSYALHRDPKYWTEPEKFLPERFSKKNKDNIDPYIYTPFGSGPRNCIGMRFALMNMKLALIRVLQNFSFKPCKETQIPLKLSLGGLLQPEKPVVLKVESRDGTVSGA
# [15] = Toxicity in rat by vivo micronucleus test
# [16] = Genotoxicity in Salmonella typhimurium by Ames test; type: toxicity; settings: salmonella enterica subsp. enterica serovar typhimurium
# Leishmania major = assay: Antiparasitic activity against Leishmania major MHOM/IR/-/173 promastigotes infected in BALB/c mouse model of cutaneous leishmaniasis assessed as healing of parasite-induced skin lesions at 20 mg/kg, po BID for 10 days; type: functional, organism-based; settings: time 10.0 day
# Leishmania donovani [17] = assay: Antiparasitic activity against Leishmania donovani MHOM/ET/67/HU3 (ATCC) infected in BALB/c mouse model of visceral leishmaniasis assessed as parasite burden in liver at 0.3 mg/kg, po BID for 8 days by qPCR analysis (reference value: 100%); type: functional; settings: time 8 day
# Leishmania donovani [18] = assay: Antiparasitic activity against Leishmania donovani MHOM/ET/67/HU3 (ATCC) infected in BALB/c mouse model of visceral leishmaniasis assessed as parasite burden in liver at 1 mg/kg, po BID for 8 days by qPCR analysis (reference value: 100%); type: functional; settings: time 8 day
# Leishmania donovani [19] = assay: Antiparasitic activity against Leishmania donovani MHOM/ET/67/HU3 (ATCC) infected in BALB/c mouse model of visceral leishmaniasis assessed as parasite burden in liver at 3 mg/kg, po BID for 8 days by qPCR analysis (reference value: 100%); type: functional; settings: time 8 day
# Leishmania donovani [20] = assay: Antiparasitic activity against Leishmania donovani MHOM/ET/67/HU3 (ATCC) infected in BALB/c mouse model of visceral leishmaniasis assessed as parasite burden in liver at 10 mg/kg, po BID for 8 days by qPCR analysis (reference value: 100%); type: functional; settings: time 8 day
# [21] = Drug concentration in plasma of Leishmania donovani MHOM/ET/67/HU3 (ATCC) infected BALB/c mouse model of visceral leishmaniasis at 0.3 to 10 mg/kg, po BID for 8 days; type: ADME, organism-based; settings: in vivo, 192 h, dose 0.3-10 mg/kg, time 8 day
# [22] = Inhibition of chymotrypsin-like activity of Leishmania tarentolae proteasome beta 5 Y113F mutant
# Leishmania tarentolae [23] = assay: Inhibition of chymotrypsin-like activity of Leishmania tarentolae proteasome beta 4 F24L mutant
# Leishmania tarentolae [24] = assay: Inhibition of chymotrypsin-like activity of Leishmania tarentolae proteasome beta 4
smiles,measurement,setting,value
Cc1nc(C)c(C(=O)Nc2ccc(F)c(-c3nc4ncc(-c5ncccc5C(F)F)cn4n3)c2)o1,hepatic extraction ratio at 1 h,in vitro [1],< 0.18
CCCCCCCCCCCCCCCCOP(=O)([O-])OCC[N+](C)(C)C [MILTEFOSINE],Activity,Leishmania donovani [2],Active
same,Activity,Leishmania donovani [3],4.2%
Cc1nc(CO)c(C(=O)Nc2ccc(F)c(-c3nc4ncc(-c5ncccc5C)cn4n3)c2)o1,Drug uptake,[4],<= 25%
same,Drug uptake,[5],<= 25%
same,Drug uptake,[6],<= 25%
same,Drug uptake,[7],<= 25%
same,Drug uptake,[8],<= 25%
same,Drug uptake,[9],2.3%
same,EC50,Leishmania donovani [10],> 5 µM
Cc1nc(C)c(C(=O)Nc2ccc(F)c(-c3nc4ncc(-c5ccccn5)cn4n3)c2)o1,inhibition,Leishmania tarentolae [11],Active
Cc1nc(C)c(C(=O)Nc2ccc(F)c(-c3nc4ncc(-c5ncccc5CO)cn4n3)c2)o1,Drug uptake,[4],<= 25%
same,Drug uptake,[5],<= 25%
same,Drug uptake,[6],<= 25%
same,Drug uptake,[7],<= 25%
same,Drug uptake,[8],<= 25%
same,Drug uptake,[9],9.1%
Cc1cccnc1-c1cnc2nc(-c3cc(NC(=O)c4oc(CO)nc4C)ccc3F)nn2c1,Drug uptake,[5],<= 25%
same,Drug uptake,[6],25%
same,Drug uptake,[7],<= 25%
same,Drug uptake,[8],<= 25%
same,EC50,Leishmania donovani [10],> 5 µM
Cc1nc(C)c(C(=O)Nc2ccc(F)c(-c3nc4ncc(-c5ncccc5Cl)cn4n3)c2)o1,hepatic extraction ratio at 1 h,in vitro [12],< 0.21
same,hepatic extraction ratio at 1 h,in vitro [13],< 0.21
same,hepatic extraction ratio at 1 h,in vitro [14],0.21
Cc1nc(C)c(C(=O)Nc2ccc(F)c(-c3nc4ncc(-c5ncccc5C)cn4n3)c2)o1 [LXE-408],Drug metabolism,Cytochrome P450 2J2,Metabolite_Detected
same,Drug metabolism,Cytochrome P450 1A2,Metabolite_Detected
same,Drug metabolism,Cytochrome P450 1A1,Metabolite_Detected
same,Drug uptake,[4],> 75%
same,Drug uptake,[5],> 75%
same,Drug uptake,[6],> 75%
same,Drug uptake,[7],> 75%
same,Drug uptake,[8],> 75%
same,Drug metabolism,Cytochrome P450 2D15,Metabolite_Detected
same,Drug metabolism,Cytochrome P450 3A4,Metabolite_Detected
same,Activity,[15],Non-Toxic
same,Activity,[16],Non-Toxic
same,Activity,Leishmania major,Active
same,Activity,Leishmania donovani [17],85%
same,Activity,Leishmania donovani [18],5.1%
same,Activity,Leishmania donovani [19],<0.2%
same,Activity,Leishmania donovani [20],<0.16%
same,Drug uptake,[21],Dose-dependent effect
same,inhibition,[22],inactive
COc1cccnc1-c1cnc2nc(-c3cc(NC(=O)c4oc(C)nc4C)ccc3F)nn2c1,hepatic extraction ratio at 1 h,in vitro [14],< 0.21
CC(C)C[C@H](NC(=O)[C@H](Cc1ccccc1)NC(=O)c1cnccn1)B(O)O,inhibition,Leishmania tarentolae [23],Active
same,inhibition,Leishmania tarentolae [24],Active
